ChEMBL document CHEMBL1201862, “PubChem BioAssay data set” (2004)
Active and inactive are the calls of the source.

Columns and labels:
[1] = HepG2 cell cytotoxicity, dose response, cytotoxicity control, ATP luminescence, dry powder, Set4 (AID 743143); format: functional, cell-based
[2] = inhibitors of non-replicating M. tuberculosis, dose response, luciferase, dry powder (AID 651620); format: functional; conditions: Mycobacterium tuberculosis
[3] = inhibitors of non-replicating M. tuberculosis, dose response, luciferase, dry powder (AID 651619); format: functional; conditions: Mycobacterium tuberculosis
[4] = MITF Orthogonal Assay: SK-MEL-5 CTG Assay Measured in Cell-Based System Using Plate Reader - 2084-02_Inhibitor_Dose_DryPowder_Activity_Set5.; format: functional
[5] = MALME3 melanoma cell viability reduction, dose response, orthogonal assay for MITF inhibitor project, CellTiter-Glo luminescence, dry powder, set 5 (AID 651584); format: functional, cell-based; conditions: MALME-3
[6] = SK-MEL-5 parental cell viability reduction, dose response, orthogonal assay for MITF inhibitor project, CellTiter-Glo luminescence, dry powder, set 8 (AID 651586); format: functional, cell-based
[7] = MITF Orthogonal Assay: MALME3 CTG Assay Measured in Cell-Based System Using Plate Reader - 2084-04_Inhibitor_Dose_DryPowder_Activity_Set6.; format: functional; conditions: MALME-3
[8] = MITF Measured in Cell-Based System Using Plate Reader - 2084-01_Inhibitor_Dose_DryPowder_Activity_Set6.; format: functional
[9] = TRPM1 promoter luciferase reporter signal decrease, dose response, MITF inhibitor project, cell-based, SK-MEL-5, dry powder, set 9 (AID 651588); format: functional
[10] = MITF Measured in Cell-Based System Using Plate Reader - 2084-01_Inhibitor_Dose_DryPowder_Activity_Set7.; format: functional
[11] = A375 melanoma cell cytotoxicity, dose response, counter-screen for MITF inhibitor project, CellTiter-Glo luminescence, dry powder, set 6 (AID 624488); format: functional, cell-based; conditions: A-375
[12] = cytotoxicity in primary human melanocytes, dose response, cytotoxicity control, cell-based, plate reader, dry powder (AID 651920); format: functional
[13] = A375 melanoma cell viability loss, dose response, counter-screen for MITF inhibitor project, CellTiter-Glo luminescence, dry powder, set 4 (AID 624364); format: functional, cell-based; conditions: A-375;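 further: A375 melanoma cells are MITF independent so this is a counter screen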
[14] = SK-MEL-5 parental line viability, dose response, MITF inhibitor project, cell-based, CellTiter-Glo, dry powder, set 6 (AID 624429); format: functional
[15] = biological target: T1, Oxysterols receptor LXR-beta (Homo sapiens, UniProt P55055); test: LXR agonists, Gal4 luciferase reporter, dose response, counter-screen for ssDAF-12 agonist project, cell-based, luminescence, HEK293, S. stercoralis campaign (AID 720737); format: functional; conditions: read-out: IC50 (the source's name)
T1 sequence (P55055 whole entry): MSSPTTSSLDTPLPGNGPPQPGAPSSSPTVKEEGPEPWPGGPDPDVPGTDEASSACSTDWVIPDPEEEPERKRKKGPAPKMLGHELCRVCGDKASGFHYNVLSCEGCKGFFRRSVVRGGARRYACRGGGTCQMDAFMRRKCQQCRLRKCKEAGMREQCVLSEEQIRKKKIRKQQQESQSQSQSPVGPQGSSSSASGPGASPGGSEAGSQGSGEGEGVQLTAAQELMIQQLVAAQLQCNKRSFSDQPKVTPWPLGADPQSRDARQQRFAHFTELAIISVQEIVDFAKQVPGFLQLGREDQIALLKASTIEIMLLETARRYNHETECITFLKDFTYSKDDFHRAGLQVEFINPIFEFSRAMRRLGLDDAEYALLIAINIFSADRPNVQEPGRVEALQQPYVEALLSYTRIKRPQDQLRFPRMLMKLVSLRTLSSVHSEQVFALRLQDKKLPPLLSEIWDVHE

Protein skinhead-1 = biological target: T2, Protein skinhead-1 (Caenorhabditis elegans, UniProt P34707); format: functional
T2 sequence (P34707 whole entry): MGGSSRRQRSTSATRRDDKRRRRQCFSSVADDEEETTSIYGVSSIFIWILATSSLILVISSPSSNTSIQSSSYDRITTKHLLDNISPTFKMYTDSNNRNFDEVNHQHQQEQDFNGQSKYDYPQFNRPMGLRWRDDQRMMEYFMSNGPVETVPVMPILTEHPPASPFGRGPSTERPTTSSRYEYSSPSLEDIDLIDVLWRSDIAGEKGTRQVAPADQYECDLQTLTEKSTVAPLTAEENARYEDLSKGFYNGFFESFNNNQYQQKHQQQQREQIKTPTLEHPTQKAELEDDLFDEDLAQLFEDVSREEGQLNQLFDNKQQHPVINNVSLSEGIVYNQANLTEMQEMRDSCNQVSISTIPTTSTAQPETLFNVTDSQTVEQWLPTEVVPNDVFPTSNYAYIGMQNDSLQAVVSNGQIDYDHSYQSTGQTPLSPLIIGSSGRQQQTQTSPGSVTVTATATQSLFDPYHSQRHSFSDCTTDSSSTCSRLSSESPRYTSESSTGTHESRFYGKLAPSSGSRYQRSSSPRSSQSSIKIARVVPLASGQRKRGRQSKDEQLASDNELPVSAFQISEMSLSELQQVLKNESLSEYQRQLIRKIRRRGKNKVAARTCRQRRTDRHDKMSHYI

[16] = biological target: T1, Oxysterols receptor LXR-beta; format: functional, cell-based
Cytochrome P450 3A4 = Cytochrome P450 3A4 (Homo sapiens, UniProt P08684);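 further: CYP3A4 tested as one member of a cytochrome P450 panel screen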
Sequence of Cytochrome P450 3A4 (P08684 whole entry): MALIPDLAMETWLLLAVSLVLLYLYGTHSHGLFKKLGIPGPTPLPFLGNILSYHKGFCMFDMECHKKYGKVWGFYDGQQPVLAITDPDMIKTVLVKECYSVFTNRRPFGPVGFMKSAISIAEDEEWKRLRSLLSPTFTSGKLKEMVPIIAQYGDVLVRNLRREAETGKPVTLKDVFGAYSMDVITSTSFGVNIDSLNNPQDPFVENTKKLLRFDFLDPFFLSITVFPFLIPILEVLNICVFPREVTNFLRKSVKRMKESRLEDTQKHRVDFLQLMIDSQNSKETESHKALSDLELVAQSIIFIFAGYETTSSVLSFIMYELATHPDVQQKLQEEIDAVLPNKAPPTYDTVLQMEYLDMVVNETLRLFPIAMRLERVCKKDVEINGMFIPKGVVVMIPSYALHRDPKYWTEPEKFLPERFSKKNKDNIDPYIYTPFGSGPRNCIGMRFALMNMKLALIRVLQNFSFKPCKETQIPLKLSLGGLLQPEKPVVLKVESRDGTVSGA

[17] = Luminescence-based cell-based high throughput dose response assay to identify activators of the DAF-12 from the parasite S. stercoralis (ssDAF-12).; format: functional
[18] = biological target: T3, NAD-dependent protein deacylase sirtuin-5, mitochondrial (Homo sapiens, UniProt Q9NXA8); test: SIRT5 desuccinylase inhibitors, dose response, biochemical, fluorescence imaging, cherry-pick, set 5 (AID 720591);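 further: desuccinylation of succinyl peptide AMC substrate read as fluorescence after trypsin release; potency of inhibitors that lower fluorescence and may act on trypsin instead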
T3 sequence (Q9NXA8 whole entry): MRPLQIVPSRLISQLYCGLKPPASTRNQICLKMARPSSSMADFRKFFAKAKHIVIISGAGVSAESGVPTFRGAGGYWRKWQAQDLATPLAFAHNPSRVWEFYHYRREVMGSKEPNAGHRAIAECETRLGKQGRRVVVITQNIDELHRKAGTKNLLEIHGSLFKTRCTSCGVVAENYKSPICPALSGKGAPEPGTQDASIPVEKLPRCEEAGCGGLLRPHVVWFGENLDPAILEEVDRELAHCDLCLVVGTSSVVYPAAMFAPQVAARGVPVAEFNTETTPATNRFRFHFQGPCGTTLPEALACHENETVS

[19] = biological target: T3, NAD-dependent protein deacylase sirtuin-5, mitochondrial; test: SIRT5 deacylase inhibitors, dose response, biochemical, fluorescence imaging, cherry-pick, set 6 (AID 720597)

O=C(CCCNC(=O)c1ccc(Cl)c(Cl)c1)N[C@@H]1CCCc2ccccc21
AC50 [1]: > 52 µM (inactive)

c1ccc(-c2nnc(SC3CCCCC3)o2)cc1
IC90 [2]: 2 µM (active) | IC90 [3]: 2 µM (active)

O=C1C(Nc2ccccc2)=C(c2ccccc2)C(=O)c2ccccc21
AC50 [4]: 27.6 µM (active) | AC50 [5]: 68.9 µM (active) | AC50 [6]: 29.3 µM (active) | AC50 [7]: 68.9 µM (active) | AC50 [8]: 10.2 µM (active) | AC50 [9]: 28.8 µM (active) | AC50 [10]: 8.71 µM (active) | AC50 [11]: > 70 µM (inactive) | AC50 [12]: > 70 µM (inactive) | AC50 [13]: > 70 µM (inactive) | AC50 [14]: 35 µM (active)

Fc1ccc(-c2cn3cc(C(F)(F)F)cc(Cl)c3n2)cc1
EC50 [15]: > 67.5 µM (inactive) | IC50 (Protein skinhead-1): > 100 µM (inactive) | EC50 [16]: > 67.5 µM (inactive) | EC50 (cells): > 67.5 µM (inactive) | AC50 (Cytochrome P450 3A4): 14.1 µM (inconclusive) | IC50 [17]: > 67.5 µM (inactive)

Cc1ccc(C(=O)COC(=O)CN2C(=O)C3C4CC(C(Br)C4Br)C3C2=O)cc1 (configuration not stated)
AC50 [18]: > 30 µM (inactive)

COc1ccc(NC(=O)N2C[C@H](O)COC[C@@H]3O[C@@H](CC(=O)N4CCCCC4)CC[C@H]32)cc1
AC50 [19]: 26.1 µM (active)
